Experimental data from patent publication US20250346583A1, “NEW DERIVATIVES FOR TREATING TRPM3 MEDIATED DISORDERS” (Katholieke Universiteit Leuven, priority 2022, published 2025).

Target: T1, mouse TRPM3α2 (mTRPM3) ion channel (Mus musculus, UniProt J9SQF3)
T1 construct: expressed in transfected cells; host or cells: flip-in HEK293
Assay: TRPM3 ion channel driven Ca2+ uptake, Fluo-4 AM assay in overexpressing flip-in HEK293 cells
Assay type: cell-based
Conditions: inhibition of Ca2+ influx stimulated with Pregnenolone sulfate (PS) 50 μM
Protocol: Monitoring the TRPM3 Ion Channel Driven Ca^2+ Uptake.
In order to monitor the inhibition of the mouse TRPM3α2 (mTRPM3) ion channel by the compounds of the invention, a cellular system making use of an mTRPM3alpha2 or hTRPM3 overexpressing cell line (flip-in HEK293) was used. The TRPM3 channel was stimulated/opened with Pregnenolone sulfate (PS) (50 μM) which results in Ca^2+ influx.
For mTRPM3, the intracellular Ca^2+ was measured with a Calcium responsive dye, Fluor-4 AM ester (Invitrogen). Cells were cultured until a confluence of 80-90%, washed with Versene (Invitrogen) and detached from the surface by a short incubation with 0.05% Trypsin (Invitrogen). The trypsination process was stopped by the addition of complete cell culture medium (DMEM, glutamax,10% FCS, NEAA, Pen-Strep). Cells were collected and resuspended in Krebs buffer without Calcium at RT.
Prior the cell seeding (+2000 cells/well into a black, 384 well plate (Greiner)) the diluted compound was added in the assay plate, together with the PS dissolved in Krebs buffer containing Calcium. […] Directly after cell addition the plates were read on an Envision fluorescence reader (Perkin Elmer) by an Excitation of 485 nm and emission at 535 nm.
Channel inhibition was calculated compared to a non-PS stimulated control versus a condition stimulated with PS (50 μM) with vehicle. The ability of the compounds of the invention to inhibit this activity was determined as: Percentage inhibition=[1-((RFU determined for sample with test compound present - RFU determined for sample with positive control inhibitor) divided by (RFU determined in the presence of vehicle - RFU determined for sample with positive control inhibitor))]*100.
The activities of the Example compounds tested are depicted in the table below. The activity ranges A, B and C refer to IC50 values in the Fluo-4 AM assay as follows: “A”: IC50<1 μM; “B”: 1 μM<IC50<20 μM and “C”: IC50>20 μM

T1 sequence (J9SQF3 1-1709 isoform J9SQF3-12): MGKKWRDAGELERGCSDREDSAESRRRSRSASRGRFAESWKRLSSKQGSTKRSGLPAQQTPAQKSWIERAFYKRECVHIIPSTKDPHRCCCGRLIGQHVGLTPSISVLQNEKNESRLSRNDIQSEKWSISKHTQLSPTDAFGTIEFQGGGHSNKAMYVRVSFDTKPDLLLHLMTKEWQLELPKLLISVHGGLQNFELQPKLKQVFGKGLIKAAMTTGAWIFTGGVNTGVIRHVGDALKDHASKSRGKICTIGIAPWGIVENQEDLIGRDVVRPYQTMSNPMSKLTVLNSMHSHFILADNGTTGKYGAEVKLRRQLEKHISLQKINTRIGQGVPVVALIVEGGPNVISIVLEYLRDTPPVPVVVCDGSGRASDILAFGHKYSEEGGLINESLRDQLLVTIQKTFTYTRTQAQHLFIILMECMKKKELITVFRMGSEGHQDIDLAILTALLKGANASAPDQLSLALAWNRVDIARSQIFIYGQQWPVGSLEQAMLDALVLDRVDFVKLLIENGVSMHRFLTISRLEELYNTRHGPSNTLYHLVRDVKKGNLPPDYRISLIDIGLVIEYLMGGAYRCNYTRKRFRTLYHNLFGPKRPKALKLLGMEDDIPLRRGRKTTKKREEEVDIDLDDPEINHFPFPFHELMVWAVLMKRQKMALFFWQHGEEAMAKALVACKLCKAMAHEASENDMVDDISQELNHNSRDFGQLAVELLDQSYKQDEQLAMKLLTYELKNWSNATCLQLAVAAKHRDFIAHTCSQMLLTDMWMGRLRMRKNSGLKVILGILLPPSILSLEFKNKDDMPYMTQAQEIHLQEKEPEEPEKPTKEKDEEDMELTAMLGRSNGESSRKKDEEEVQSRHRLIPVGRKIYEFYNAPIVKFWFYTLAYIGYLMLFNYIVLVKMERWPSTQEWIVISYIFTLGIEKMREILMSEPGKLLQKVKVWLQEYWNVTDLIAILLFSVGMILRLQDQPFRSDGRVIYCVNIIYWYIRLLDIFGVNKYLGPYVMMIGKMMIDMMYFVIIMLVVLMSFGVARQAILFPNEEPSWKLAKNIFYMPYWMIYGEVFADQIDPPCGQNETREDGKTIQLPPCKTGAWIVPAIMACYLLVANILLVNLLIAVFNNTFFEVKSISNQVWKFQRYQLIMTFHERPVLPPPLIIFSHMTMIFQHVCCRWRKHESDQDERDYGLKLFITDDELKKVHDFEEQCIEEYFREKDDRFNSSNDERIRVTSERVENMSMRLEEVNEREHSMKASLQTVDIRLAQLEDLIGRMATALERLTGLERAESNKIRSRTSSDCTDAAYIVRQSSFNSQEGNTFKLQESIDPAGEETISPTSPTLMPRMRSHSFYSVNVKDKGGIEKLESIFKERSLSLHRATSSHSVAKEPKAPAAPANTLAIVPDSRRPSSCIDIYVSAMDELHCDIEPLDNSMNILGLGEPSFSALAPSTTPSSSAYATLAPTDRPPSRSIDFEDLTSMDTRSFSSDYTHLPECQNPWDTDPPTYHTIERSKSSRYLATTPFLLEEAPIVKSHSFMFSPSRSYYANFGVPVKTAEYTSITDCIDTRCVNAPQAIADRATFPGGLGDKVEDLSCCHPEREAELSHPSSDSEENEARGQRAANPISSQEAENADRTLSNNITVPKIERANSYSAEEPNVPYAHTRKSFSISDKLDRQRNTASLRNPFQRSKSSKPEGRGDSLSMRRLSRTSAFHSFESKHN

SMILES: Cc1oc2ccc(OCC3CC3)cc2c1C1(N)CC1 [Cpd 025, 1-[5-(cyclopropylmethoxy)-2-methyl-1-benzofuran-3-yl]cyclopropan-i-amine]
- IC50: > 20 µM

SMILES: Cc1ncsc1COc1ccc2oc(C)c(-c3ncc(CO)o3)c2c1 [Cpd 002, (2-{2-methyl-5-[(4-methyl-1,3-thiazol-5-yl)methoxy]-1-benzofuran-3-yl}-1,3-oxazol-5-yl)methanol]
- IC50: < 1 µM

SMILES: Cc1oc2ccc(OCc3ccccc3)cc2c1C1(CO)CC1 [Cpd 021, {1-[5-(benzyloxy)-2-methyl-1-benzofuran-3-yl]cyclopropyl}methanol]
- IC50: 1 to 20 µM

SMILES: Cc1oc2ccc(OCc3cccnc3C(F)(F)F)cc2c1C1(CO)CC1 [Cpd 001, [1-(2-methyl-5-{[2-(trifluoromethyl)pyridin-3-yl]methoxy}-1-benzofuran-3-yl)cyclopropyl]methanol]
- IC50: < 1 µM

SMILES: COCC(=O)NC1(c2c(C)oc3ccc(OCc4cccnc4C(F)(F)F)cc23)CC1 [Cpd 010, 2-methoxy-N-[1-(2-methyl-5-{[2-(trifluoromethyl)pyridin-3-yl]methoxy}-1-benzofuran-3-yl)cyclopropyl]acetamide]
- IC50: < 1 µM

SMILES: Cc1oc2ccc(OCc3cccnc3C(F)(F)F)cc2c1C1(NC(=O)C(C)(C)O)CC1 [Cpd 009, 2-hydroxy-2-methyl-N-[1-(2-methyl-5-{[2-(trifluoromethyl)pyridin-3-yl]methoxy}-1-benzofuran-3-yl)cyclopropyl]propanamide]
- IC50: < 1 µM

SMILES: Cc1noc(-c2c(C)oc3ccc(OCc4c(F)cccc4Cl)cc23)n1 [Cpd 028, 5-{5-[(2-chloro-6-fluorophenyl)methoxy]-2-methyl-1-benzofuran-3-yl}-3-methyl-1,2,4-oxadiazole]
- IC50: > 20 µM

SMILES: Cc1ncsc1COc1ccc2oc(C)c(C3(C#N)CC3)c2c1 [Cpd 011, 1-{2-methyl-5-[(4-methyl-1,3-thiazol-5-yl)methoxy]-1-benzofuran-3-yl}cyclopropane-i-carbonitrile]
- IC50: < 1 µM

SMILES: Cc1oc2ccc(OCc3ccccn3)cc2c1C1(N)CC1 [Cpd 024, 1-{2-methyl-5-[(pyridin-2-yl)methoxy]-1-benzofuran-3-yl}cyclopropan-i-amine]
- IC50: 1 to 20 µM

SMILES: Cc1oc2ccc(OCc3ccccc3)cc2c1-c1cncc(CO)n1 [Cpd 031, {6-[5-(benzyloxy)-2-methyl-1-benzofuran-3-yl]pyrazin-2-yl}methanol]
- IC50: > 20 µM

SMILES: COCCC(=O)NC1(c2c(C)oc3ccc(OCc4cccnc4C(F)(F)F)cc23)CC1 [Cpd 008, 3-methoxy-N-[1-(2-methyl-5-{[2-(trifluoromethyl)pyridin-3-yl]methoxy}-1-benzofuran-3-yl)cyclopropyl]propanamide]
- IC50: < 1 µM

SMILES: Cc1oc2ccc(OCc3ccccc3)cc2c1-c1nccc(CC(F)(F)F)n1 [Cpd 030, 2-[5-(benzyloxy)-2-methyl-1-benzofuran-3-yl]-4-(2,2,2-trifluoroethyl)pyrimidine]
- IC50: > 20 µM

SMILES: Cc1ncsc1COc1ccc2oc(C)c(C3(NC(=O)CO)CC3)c2c1 [Cpd 017, 2-hydroxy-N-(1-{2-methyl-5-[(4-methyl-1,3-thiazol-5-yl)methoxy]-1-benzofuran-3-yl}cyclopropyl)acetamide]
- IC50: 1 to 20 µM

SMILES: Cc1ncsc1COc1ccc2oc(C)c(C3(C(=O)NCCO)CC3)c2c1 [Cpd 020, N-(2-hydroxyethyl)-1-{2-methyl-5-[(4-methyl-1,3-thiazol-5-yl)methoxy]-1-benzofuran-3-yl}cyclopropane-1-carboxamide]
- IC50: 1 to 20 µM

SMILES: Cc1ncc(COc2ccc3oc(C)c(C4(N)CC4)c3c2)s1 [Cpd 026, 1-{2-methyl-5-[(2-methyl-1,3-thiazol-5-yl)methoxy]-1-benzofuran-3-yl}cyclopropan-i-amine]
- IC50: > 20 µM

SMILES: Cc1oc2ccc(OCc3cccnc3C(F)(F)F)cc2c1C1(CN)CC1 [Cpd 016, 1-[1-(2-methyl-5-{[2-(trifluoromethyl)pyridin-3-yl]methoxy}-1-benzofuran-3-yl)cyclopropyl]methanamine]
- IC50: 1 to 20 µM

SMILES: Cc1ncsc1COc1ccc2oc(C)c(C3(C(N)=O)CC3)c2c1 [Cpd 022, 1-{2-methyl-5-[(4-methyl-1,3-thiazol-5-yl)methoxy]-1-benzofuran-3-yl}cyclopropane-1-carboxamide]
- IC50: 1 to 20 µM

SMILES: Cc1oc2ccc(OCc3cccnc3C(F)(F)F)cc2c1C1(NS(=O)(=O)CC2CC2)CC1 [Cpd 013, 1-cyclopropyl-N-[1-(2-methyl-5-{[2-(trifluoromethyl)pyridin-3-yl]methoxy}-1-benzofuran-3-yl)cyclopropyl]methanesulfonamide]
- IC50: < 1 µM

SMILES: Cc1oc2ccc(OCc3cccnc3C(F)(F)F)cc2c1C1(N)CC1 [Cpd 014, 1-(2-methyl-5-{[2-(trifluoromethyl)pyridin-3-yl]methoxy}-1-benzofuran-3-yl)cyclopropan-1-amine]
- IC50: 1 to 20 µM

SMILES: Cc1oc2ccc(OCc3cccnc3C(F)(F)F)cc2c1C1(NCC(N)=O)CC1 [Cpd 012, 2-{[1-(2-methyl-5-{[2-(trifluoromethyl)pyridin-3-yl]methoxy}-1-benzofuran-3-yl)cyclopropyl]amino}acetamide]
- IC50: < 1 µM

SMILES: Cc1oc2ccc(OCc3cccnc3C(F)(F)F)cc2c1C1(NS(C)(=O)=O)CC1 [Cpd 006, N-[1-(2-methyl-5-{[2-(trifluoromethyl)pyridin-3-yl]methoxy}-1-benzofuran-3-yl)cyclopropyl]methanesulfonamide]
- IC50: < 1 µM

SMILES: Cc1oc2ccc(OCc3c(F)cccc3Cl)cc2c1-c1nn[nH]n1 [Cpd 023, 5-{5-[(2-chloro-6-fluorophenyl)methoxy]-2-methyl-1-benzofuran-3-yl}-2H-1,2,3,4-tetrazole]
- IC50: 1 to 20 µM

SMILES: Cc1oc2ccc(OCc3cccnc3O)cc2c1C1=NC(CO)(CO)CO1 [Cpd 018, 3-[({3-[4,4-bis(hydroxymethyl)-4,5-dihydro-1,3-oxazol-2-yl]-2-methyl-1-benzofuran-5-yl}oxy)methyl]pyridin-2-ol]
- IC50: 1 to 20 µM

SMILES: Cc1oc2ccc(OCc3cccnc3C(F)(F)F)cc2c1C1(NC(=O)CO)CC1 [Cpd 003, 2-hydroxy-N-[1-(2-methyl-5-{[2-(trifluoromethyl)pyridin-3-yl]methoxy}-1-benzofuran-3-yl)cyclopropyl]acetamide]
- IC50: < 1 µM

SMILES: Cc1oc2ccc(OCc3ccccc3)cc2c1-c1nccc(CO)n1 [Cpd 032, {2-[5-(benzyloxy)-2-methyl-1-benzofuran-3-yl]pyrimidin-4-yl}methanol]
- IC50: > 20 µM

SMILES: Cc1ncsc1COc1ccc2oc(C)c(C3(CO)CC3)c2c1 [Cpd 004, (1-{2-methyl-5-[(4-methyl-1,3-thiazol-5-yl)methoxy]-1-benzofuran-3-yl}cyclopropyl)methanol]
- IC50: < 1 µM

SMILES: Cc1oc2ccc(OCc3ccccc3)cc2c1C1(C#N)CC1 [Cpd 019, 1-[5-(benzyloxy)-2-methyl-1-benzofuran-3-yl]cyclopropane-1-carbonitrile]
- IC50: 1 to 20 µM

SMILES: Cc1oc2ccc(OCc3ccccc3)cc2c1-c1cncc(CC(F)(F)F)n1 [Cpd 029, 2-[5-(benzyloxy)-2-methyl-1-benzofuran-3-yl]-6-(2,2,2-trifluoroethyl)pyrazine]
- IC50: > 20 µM

SMILES: Cc1oc2ccc(OCc3cccnc3C(F)(F)F)cc2c1C1(NC(C)C(N)=O)CC1 (centres unmarked) [Cpd 015, 2-{[1-(2-methyl-5-{[2-(trifluoromethyl)pyridin-3-yl]methoxy}-1-benzofuran-3-yl)cyclopropyl]amino}propanamide]
- IC50: 1 to 20 µM

SMILES: Cc1oc2ccc(OCc3cccnc3C(F)(F)F)cc2c1C1(NS(=O)(=O)C2CC2)CC1 [Cpd 005, N-[1-(2-methyl-5-{[2-(trifluoromethyl)pyridin-3-yl]methoxy}-1-benzofuran-3-yl)cyclopropyl]cyclopropanesulfonamide]
- IC50: < 1 µM

SMILES: Cc1ncsc1COc1ccc2oc(C)c(-c3ncc(CO)[nH]3)c2c1 [Cpd 007, (2-{2-methyl-5-[(4-methyl-1,3-thiazol-5-yl)methoxy]-1-benzofuran-3-yl}-1H-imidazol-4-yl)methanol]
- IC50: < 1 µM

SMILES: Cc1ncsc1COc1ccc2oc(C)c(C3(N)CC3)c2c1 [Cpd 027, 1-{2-methyl-5-[(4-methyl-1,3-thiazol-5-yl)methoxy]-1-benzofuran-3-yl}cyclopropan-i-amine]
- IC50: > 20 µM
